Common to all, as to assay: relative viability (nuclei count vs DMSO), 5 days (fraction); higher = more cells survive
Compound in assay [1]: C1CC(C1)(C(=O)O)C(=O)O.[NH2-].[NH2-].[Pt+2] [Carboplatin] + CC(=O)c1c(C)c2cnc(Nc3ccc(N4CCNCC4)cn3)nc2n(C2CCCC2)c1=O [Palbociclib] (partner 0.5 µM)
The gist of the method:
(§1)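 The day after seeding in 1536-well plates, lung cancer cell lines were treated by pin tool with a single drug, or with a fixed anchor-drug dose together with five library-drug doses (not always all listed) in √10 steps. After 5 days, a combined fix-and-stain solution (final 0.05% Triton X-100, 1% formaldehyde, 1 ug/ml Hoechst) was added. Nuclei counted on 4× images gave relative viability as treated counts over vehicle counts, reported as the median of duplicate plates.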

Compound in the assay “Carboplatin + Bortezomib”: C1CC(C1)(C(=O)O)C(=O)O.[NH2-].[NH2-].[Pt+2] [Carboplatin] + CC(C)C[C@H](NC(=O)[C@H](Cc1ccccc1)NC(=O)c1cnccn1)B(O)O [Bortezomib] (partner 0.002 µM)
A digest of the protocol:
as §1

Compound in the assay “GSK126 + Linsitinib”: CC[C@H](C)N1C=C(C2=C(C=C(C=C21)C3=CN=C(C=C3)N4CCNCC4)C(=O)NCC5=C(C=C(NC5=O)C)C)C [GSK126] + C[C@]1(O)C[C@@H](c2nc(-c3ccc4ccc(-c5ccccc5)nc4c3)c3c(N)nccn32)C1 [Linsitinib] (partner 1 µM)
A digest of the protocol: as §1

Compound in the assay “MLN4924 + OSI-027”: NS(=O)(=O)OC[C@@H]1C[C@@H](n2ccc3c(N[C@H]4CCc5ccccc54)ncnc32)C[C@@H]1O [MLN4924] + COc1cccc2cc(-c3nc([C@H]4CC[C@H](C(=O)O)CC4)n4ncnc(N)c34)[nH]c12 [OSI-027] (partner 0.5 µM)
The gist of the method: as §1

In the case of PC-3 [JPC-3], the relative viability is 0.537 in assay [1] (first compound 0.08 µM); 0.577 in assay [1] (first compound 0.253 µM); 0.511 in assay [1] (first compound 0.8 µM); 0.526 in assay [1] (first compound 2.53 µM); 0.512 in assay [1] (first compound 8 µM); 0.928 with Carboplatin + Bortezomib (first compound 0.08 µM). Moreover, the relative viability with Carboplatin + Bortezomib (first compound 0.253 µM) is 0.81; in the assay with Carboplatin + Bortezomib (first compound 0.8 µM) it was 0.748; with Carboplatin + Bortezomib (first compound 2.53 µM), 0.798; with Carboplatin + Bortezomib (first compound 8 µM) it was 0.742; in the assay with GSK126 + Linsitinib (first compound 0.08 µM), 1.01; in the assay with GSK126 + Linsitinib (first compound 0.253 µM), 0.977. The relative viability with GSK126 + Linsitinib (first compound 0.8 µM) is 0.941; with GSK126 + Linsitinib (first compound 2.53 µM), 0.921; with GSK126 + Linsitinib (first compound 8 µM), 0.958; with MLN4924 + OSI-027 (first compound 0.04 µM), 0.829; with MLN4924 + OSI-027 (first compound 0.1265 µM) it was 0.744; with MLN4924 + OSI-027 (first compound 0.4 µM) it was 0.659. Besides, the relative viability with MLN4924 + OSI-027 (first compound 1.265 µM) worked out at 0.283; with MLN4924 + OSI-027 (first compound 4 µM) it was 0.237.
Take PC-14: the relative viability was determined as 0.552 in assay [1] (first compound 0.08 µM); 0.509 in assay [1] (first compound 0.253 µM); 0.411 in assay [1] (first compound 0.8 µM); 0.239 in assay [1] (first compound 2.53 µM); 0.117 in assay [1] (first compound 8 µM); 0.846 with Carboplatin + Bortezomib (first compound 0.08 µM). The relative viability was 0.845 with Carboplatin + Bortezomib (first compound 0.253 µM); 0.757 with Carboplatin + Bortezomib (first compound 0.8 µM); 0.868 with Carboplatin + Bortezomib (first compound 2.53 µM); 0.437 in the assay with Carboplatin + Bortezomib (first compound 8 µM); 0.944 in the assay with GSK126 + Linsitinib (first compound 0.08 µM); 0.994 with GSK126 + Linsitinib (first compound 0.253 µM). The relative viability with GSK126 + Linsitinib (first compound 0.8 µM) worked out at 0.982; in the assay with GSK126 + Linsitinib (first compound 2.53 µM) it was 0.968; in the assay with GSK126 + Linsitinib (first compound 8 µM), 0.954; with MLN4924 + OSI-027 (first compound 0.04 µM), 1.03; in the assay with MLN4924 + OSI-027 (first compound 0.1265 µM), 0.787; with MLN4924 + OSI-027 (first compound 0.4 µM) it was 0.378. The values for the relative viability in the assay with MLN4924 + OSI-027 (first compound 1.265 µM) and with MLN4924 + OSI-027 (first compound 4 µM) were 0.0583 and 0.065, respectively.
For RERF-LC-KJ, the relative viability in assay [1] (first compound 0.08 µM) is 1.22; in assay [1] (first compound 0.253 µM), 1.09; in assay [1] (first compound 0.8 µM), 0.894; in assay [1] (first compound 2.53 µM) it was 0.815; in assay [1] (first compound 8 µM) it was 0.651; with Carboplatin + Bortezomib (first compound 0.08 µM) it was 1.22. The relative viability with Carboplatin + Bortezomib (first compound 0.253 µM) amounted to 1.2; in the assay with Carboplatin + Bortezomib (first compound 0.8 µM), 1.19; with Carboplatin + Bortezomib (first compound 2.53 µM), 1.18; in the assay with Carboplatin + Bortezomib (first compound 8 µM) it was 0.937; in the assay with GSK126 + Linsitinib (first compound 0.08 µM), 0.908; with GSK126 + Linsitinib (first compound 0.253 µM), 0.909. Moreover, the relative viability worked out at 0.852 with GSK126 + Linsitinib (first compound 0.8 µM); 0.884 with GSK126 + Linsitinib (first compound 2.53 µM); 0.901 with GSK126 + Linsitinib (first compound 8 µM); 0.576 with MLN4924 + OSI-027 (first compound 0.04 µM); 0.52 with MLN4924 + OSI-027 (first compound 0.1265 µM); 0.217 with MLN4924 + OSI-027 (first compound 0.4 µM). Further, the relative viability with MLN4924 + OSI-027 (first compound 1.265 µM) was found to be 0.175; in the assay with MLN4924 + OSI-027 (first compound 4 µM), 0.224.
For SK-LU-1, the relative viability was determined as 0.424 in assay [1] (first compound 0.08 µM); 0.386 in assay [1] (first compound 0.253 µM); 0.363 in assay [1] (first compound 0.8 µM); 0.415 in assay [1] (first compound 2.53 µM); 0.355 in assay [1] (first compound 8 µM); 1.79 with Carboplatin + Bortezomib (first compound 0.08 µM). Besides, the relative viability in the assay with Carboplatin + Bortezomib (first compound 0.253 µM) amounted to 1.26; with Carboplatin + Bortezomib (first compound 0.8 µM), 1.44; with Carboplatin + Bortezomib (first compound 2.53 µM), 1.21; in the assay with Carboplatin + Bortezomib (first compound 8 µM) it was 0.582; with GSK126 + Linsitinib (first compound 0.08 µM) it was 1.31; with GSK126 + Linsitinib (first compound 0.253 µM), 1.07. The relative viability turned out to be 1.11 with GSK126 + Linsitinib (first compound 0.8 µM); 1.44 in the assay with GSK126 + Linsitinib (first compound 2.53 µM); 1.25 with GSK126 + Linsitinib (first compound 8 µM); 0.366 with MLN4924 + OSI-027 (first compound 0.04 µM); 0.331 with MLN4924 + OSI-027 (first compound 0.1265 µM); 0.177 with MLN4924 + OSI-027 (first compound 0.4 µM). Further, the relative viability stood at 0.128 with MLN4924 + OSI-027 (first compound 1.265 µM) and 0.139 with MLN4924 + OSI-027 (first compound 4 µM).
As for SW 1573, the relative viability in assay [1] (first compound 0.08 µM) turned out to be 0.484; in assay [1] (first compound 0.253 µM), 0.438; in assay [1] (first compound 0.8 µM), 0.43; in assay [1] (first compound 2.53 µM), 0.369; in assay [1] (first compound 8 µM), 0.273; with Carboplatin + Bortezomib (first compound 0.08 µM), 1.09. For the same cell line, the relative viability with Carboplatin + Bortezomib (first compound 0.253 µM) was found to be 1; with Carboplatin + Bortezomib (first compound 0.8 µM), 1.12; with Carboplatin + Bortezomib (first compound 2.53 µM), 1.05; with Carboplatin + Bortezomib (first compound 8 µM) it was 0.808; in the assay with GSK126 + Linsitinib (first compound 0.08 µM) it was 0.813; with GSK126 + Linsitinib (first compound 0.253 µM), 0.761. Besides, the relative viability with GSK126 + Linsitinib (first compound 0.8 µM) stood at 0.743; with GSK126 + Linsitinib (first compound 2.53 µM), 0.816; in the assay with GSK126 + Linsitinib (first compound 8 µM) it was 0.746; in the assay with MLN4924 + OSI-027 (first compound 0.04 µM), 0.684; in the assay with MLN4924 + OSI-027 (first compound 0.1265 µM), 0.666; with MLN4924 + OSI-027 (first compound 0.4 µM), 0.191. Also, the relative viability was 0.0527 with MLN4924 + OSI-027 (first compound 1.265 µM) and 0.0802 with MLN4924 + OSI-027 (first compound 4 µM).

(Values after the supplement of paper PMC10307832.)
